# Test results taken from JP2017128553A, “抗癌剤、抗癌剤の制御方法” (IHI Corp, priority 2016, dated 2017).
# Test: MRI造影効果: MRI contrast effect of solutions (T1- and T2-weighted, 7.0T)
# Assay type: physicochemical
# Settings: aqueous solution, 0, 1.3, 2.5, 5mM, T1- and T2-weighted images, Fig. 6(C)
compound,measurement,value
"Cc1ccc(Nc2nccc(N(C)c3ccc4c(C)n(C)nc4c3)n2)cc1S(N)(=O)=O [比較例1, 2-メチル-5-[[4-[メチル(2,3-ジメチル-2H-インダゾール-6-イル)アミノ]ピリミジン-2-イル]アミノ]ベンゼンスルホンアミド]",MRI image appearance,いずれの濃度においても白色の高シグナル
